One data set addresses T1, CgChoA (Chryseobacterium gleum, UniProt A0ABP2IT22).
T1 construct: gene HMPREF0204_11499
T1 sequence (A0ABP2IT22 1-528): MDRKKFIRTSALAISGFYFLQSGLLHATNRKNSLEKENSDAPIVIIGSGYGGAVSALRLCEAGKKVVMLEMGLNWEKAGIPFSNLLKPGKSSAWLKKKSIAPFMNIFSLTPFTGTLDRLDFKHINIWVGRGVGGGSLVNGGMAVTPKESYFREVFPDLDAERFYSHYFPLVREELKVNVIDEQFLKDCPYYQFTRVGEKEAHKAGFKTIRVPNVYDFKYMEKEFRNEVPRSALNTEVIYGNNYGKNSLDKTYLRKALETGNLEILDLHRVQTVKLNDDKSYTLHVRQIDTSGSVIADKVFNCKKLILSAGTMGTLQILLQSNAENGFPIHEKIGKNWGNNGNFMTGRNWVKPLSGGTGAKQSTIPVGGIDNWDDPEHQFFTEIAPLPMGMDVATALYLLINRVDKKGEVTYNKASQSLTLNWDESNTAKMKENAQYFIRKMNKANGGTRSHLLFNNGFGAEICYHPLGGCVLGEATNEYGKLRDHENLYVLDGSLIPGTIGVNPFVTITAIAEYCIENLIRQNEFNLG
In words: UV-vis spectrum of purified protein and of supernatant after boiling. It counts as binding. To be noted: co-purified cofactor; non-covalently bound.

Substrate in data set [1]: CC(C)CCC[C@@H](C)[C@H]1CC[C@H]2[C@@H]3CC=C4C[C@@H](O)CC[C@]4(C)[C@H]3CC[C@]12C
The data set can be described thus: HRP-coupled H2O2 assay, initial rates. To be noted: cholesterol dispersed in water with taurocholate as sole surfactant, 0.011 M MOPS pH 6.75, 35°C, O2 as co-substrate. It counts as biochemical, Chryseobacterium gleum.

For `Cc1cc2nc3c(=O)[nH]c(=O)nc-3n(C[C@H](O)[C@H](O)[C@H](O)COP(=O)(O)OP(=O)(O)OC[C@H]3O[C@@H](n4cnc5c(N)ncnc54)[C@H](O)[C@@H]3O)c2cc1C` [FAD], at CgChoA, the “UV-vis spectrum of purified protein and of supernatant after boiling” value is “Only FAD that is non-covalently associated with the enzyme is detectable by this method”.

B1: CgChoA (Chryseobacterium gleum ATCC 35910) (protein)
chain: MDRKKFIRTSALAISGFYFLQSGLLHATNRKNSLEKENSDAPIVIIGSGYGGAVSALRLCEAGKKVVMLEMGLNWEKAGIPFSNLLKPGKSSAWLKKKSIAPFMNIFSLTPFTGTLDRLDFKHINIWVGRGVGGGSLVNGGMAVTPKESYFREVFPDLDAERFYSHYFPLVREELKVNVIDEQFLKDCPYYQFTRVGEKEAHKAGFKTIRVPNVYDFKYMEKEFRNEVPRSALNTEVIYGNNYGKNSLDKTYLRKALETGNLEILDLHRVQTVKLNDDKSYTLHVRQIDTSGSVIADKVFNCKKLILSAGTMGTLQILLQSNAENGFPIHEKIGKNWGNNGNFMTGRNWVKPLSGGTGAKQSTIPVGGIDNWDDPEHQFFTEIAPLPMGMDVATALYLLINRVDKKGEVTYNKASQSLTLNWDESNTAKMKENAQYFIRKMNKANGGTRSHLLFNNGFGAEICYHPLGGCVLGEATNEYGKLRDHENLYVLDGSLIPGTIGVNPFVTITAIAEYCIENLIRQNEFNLG
One may read the Km as the concentration of substrate that gives half-maximal velocity. For the molecule B1, the Michaelis-Menten constant (Km) in data set [1] was found to be 500 µM.

For the origin of these results see PMC4053396, “Cloning, expression and biochemical characterization of the cholesterol oxidase CgChoA from Chryseobacterium gleum” (BMC Biotechnology, 2014).
